Experiment [1] has as its target T1, caspase-3 (C3) (Homo sapiens, UniProt P42574).
T1 sequence (P42574 29-175 limits assumed): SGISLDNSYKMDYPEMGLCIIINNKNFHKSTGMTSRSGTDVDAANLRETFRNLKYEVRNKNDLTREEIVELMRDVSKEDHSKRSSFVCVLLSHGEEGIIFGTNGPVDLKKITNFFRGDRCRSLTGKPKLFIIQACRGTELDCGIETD
In words: Caspase-3 biochemical activity assay with fluorogenic substrate. The conditions noted are these: read-out: Casp-3 IC50. The source says:
Error bars represent the standard deviation of thre replicate measurements. […] Activity measured by the cleavage of aminofluorocoumarin-labeled peptides (see the Supporting Information for sequences). C = caspase.

The target of experiment [2] is T2, C6 small subunit (Homo sapiens, UniProt P55212).
T2 construct: 194-293-Leu-Glu-His6 (SS) from caspase-6 cDNA (Origene); Leu-Glu-His6 (C); made in house; host or cells: E. coli Rosetta 2 pLysS DE3
T2 sequence (P55212 194-293): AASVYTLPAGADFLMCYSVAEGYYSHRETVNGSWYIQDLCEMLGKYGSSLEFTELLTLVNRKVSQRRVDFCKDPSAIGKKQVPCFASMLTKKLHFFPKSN
T2 sequence (P55212 30-179): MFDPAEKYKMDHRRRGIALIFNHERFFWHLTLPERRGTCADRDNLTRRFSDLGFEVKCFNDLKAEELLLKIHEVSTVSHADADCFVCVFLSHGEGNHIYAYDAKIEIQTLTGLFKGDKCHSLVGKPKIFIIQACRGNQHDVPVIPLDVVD
Put plainly: Disulfide tethering assay (% labeling by LC/MS), small subunit. The experiment is classed as binding.

In experiment [3] the target is T3, C6 large subunit (Homo sapiens, UniProt P55212).
T3 construct: Residues 30-179 (LS); made in house; host or cells: E. coli Rosetta 2 pLysS DE3
T3 sequence (P55212 30-179): as above
T3 sequence (P55212 194-293): as the sequence (P55212 194-293) above
Put plainly: Disulfide tethering assay (% labeling by LC/MS), large subunit. The experiment is classed as binding.

The subject of experiment [4] is lamin A cleavage by caspase-6 in SK-N-AS cells. Put plainly: Lamin cleavage assay (in-cell western after staurosporine induction). The experiment is classed as cell-based. The conditions noted are these: Homo sapiens, 1 h compound then 10 μM staurosporine.
Experimental: This assay measured lamin A cleavage under staurosporine-induced caspase activation; while staurosporine activates all executioner caspases, lamin A cleavage monitors only the activity of C6. After 1 h of preincubation with the compound and 3 h of incubation with staurosporine, lamin A cleavage was measured by in-cell western.
Inhibition of lamin A cleavage in SK-N-AS cells after staurosporine induction of caspases. Cells were treated with the indicated compound for 1 h before the addition of 10 μM staurosporine for 4 h. Error bars indicate the standard deviation from n = 4 replicate samples.
serves as a useful target-engagement assay in cells. We used the procedure of Mintz, et al, with the following modifications: SK-N-AS cells were seeded at 10,000 cells/well in black clear bottom 384-
well plates coated with poly-D-lysine and allowed to adhere overnight. Wells were treated with
varying doses of casapase-6 inhibitor, from 5 µM – 0.1 nM in 2-fold dilutions. After one hour, cells
were treated with 10 µM staurosporine to induce apoptosis and activation of multiple caspases. 3
hours after staurosporine addition, cells were fixed and permeabilized before in-cell westerns were
performed, as described.9

One may read the IC50 as the concentration that inhibits the measured activity by half. `C=CS(=O)(=O)N1C[C@H](C(=O)Nc2ccc(OC(F)(F)F)cc2)C[C@@H](c2ccccc2)C1` (racemic) [(±)-3-t]: the IC50 in experiment [1] was above 500 µM.

As to `O=C(NCCS)[C@H]1CCCN(C(=O)Cc2ccc(OC(F)(F)F)cc2)C1` [compound 1], the “C6 % labeling (MS) small subunit” value in experiment [2] was 76%. For the same compound, the “C6 % labeling (MS) large subunit” value in experiment [3] came to 2%.

In the case of `C=CS(=O)(=O)N1C[C@H](C(=O)Nc2ccc(OC(F)(F)F)cc2)C[C@H](c2ccccc2)C1` (racemic) [(±)-3-c], in experiment [1], the IC50 is above 500 µM.

Consider `C=CS(=O)(=O)N1CCC[C@@H](C(=O)Nc2ccc(OC(F)(F)F)cc2)C1` [2a], for which the IC50 in experiment [1] is above 500 µM; in experiment [4], 14.2 ± 2.4 µM.

Source of the values: PMC10176470, “Engaging a Non-catalytic Cysteine Residue Drives Potent and Selective Inhibition of Caspase-6” (Journal of the American Chemical Society, 2023).
